Assay [1] concerns the target T1, wild type mycobacterial dephosphocoenzyme A kinase (CoaE) (Mycobacterium tuberculosis, UniProt P9WPA3).
T1 sequence (P9WPA3 1-407): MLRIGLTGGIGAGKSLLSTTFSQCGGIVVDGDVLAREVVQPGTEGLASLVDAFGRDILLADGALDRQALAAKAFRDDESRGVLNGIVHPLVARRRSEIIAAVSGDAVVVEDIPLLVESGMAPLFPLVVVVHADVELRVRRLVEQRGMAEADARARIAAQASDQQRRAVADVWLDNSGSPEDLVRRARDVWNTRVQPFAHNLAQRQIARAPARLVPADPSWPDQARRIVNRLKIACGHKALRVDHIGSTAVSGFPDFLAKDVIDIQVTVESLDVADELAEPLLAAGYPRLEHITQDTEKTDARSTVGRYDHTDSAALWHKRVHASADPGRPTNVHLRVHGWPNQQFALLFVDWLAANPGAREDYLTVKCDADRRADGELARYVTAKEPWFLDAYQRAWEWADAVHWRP
The format is biochemical.

The target in assay [2] is T2, mycobacterial dephosphocoenzyme A kinase K14A mutant (Mycobacterium tuberculosis, UniProt P9WPA3, K14A). It is filed as biochemical.
The target in assay [3] is mycobacterial dephosphocoenzyme A kinase G8A mutant (Mycobacterium tuberculosis, UniProt P9WPA3, G8A). It is filed as biochemical.
Assay [4] concerns the target mycobacterial dephosphocoenzyme A kinase R140A mutant (Mycobacterium tuberculosis, UniProt P9WPA3, R140A). It is filed as biochemical.
The target in assay [5] is T3, mycobacterial dephosphocoenzyme A kinase R140K mutant (Mycobacterium tuberculosis, UniProt P9WPA3, R140K). The format is biochemical.
Assay [6] deals with T4, mycobacterial dephosphocoenzyme A kinase D32A mutant (Mycobacterium tuberculosis, UniProt P9WPA3, D32A). It is filed as biochemical.
For assay [7], the target named is T5, mycobacterial dephosphocoenzyme A kinase D32E mutant (Mycobacterium tuberculosis, UniProt P9WPA3, D32E). It is filed as biochemical.
Assay [8] deals with mycobacterial dephosphocoenzyme A kinase L114A mutant (Mycobacterium tuberculosis, UniProt P9WPA3, L114A). The format is biochemical.
The target in assay [9] is T1, wild type mycobacterial dephosphocoenzyme A kinase (CoaE). It is filed as binding. The conditions noted are these: pH 7.8.
Assay [10] has as its target T2, mycobacterial dephosphocoenzyme A kinase K14A mutant. The format is binding. The following applies: pH 7.8.
The target in assay [11] is T3, mycobacterial dephosphocoenzyme A kinase R140K mutant. The format is binding.
Assay [12] concerns the target T5, mycobacterial dephosphocoenzyme A kinase D32E mutant. It is filed as binding. The following applies: pH 7.8.
Assay [13] has as its target T4, mycobacterial dephosphocoenzyme A kinase D32A mutant. It is filed as binding. The conditions noted are these: pH 7.8.

Where “and” joins values, the source holds several entries; their conditions need not be identical. Equal entries are not always repeated. Entries after “also recorded” stand apart in the source; their conditions may differ.

As for `CC(C)(COP(=O)(O)OP(=O)(O)OC[C@H]1O[C@@H](n2cnc3c(N)ncnc32)[C@H](O)[C@@H]1O)[C@@H](O)C(=O)NCCC(=O)NCCS` [DCoA, dephosphocoenzyme A], the Kcat in assay [1] was 0.0257 s⁻¹ and 0.0293 s⁻¹; in assay [2] it was 1.532 min⁻¹; in [3], 0.02572 s⁻¹; in assay [4] it was “nr”; in assay [5] it was 0.00755 s⁻¹; in assay [6], 0.00171 s⁻¹. Moreover, the Kcat in assay [7] stood at 0.0327 s⁻¹; in assay [8], 0.0569 s⁻¹. Moreover, the Km worked out at 75.8 µM in assay [2]; 37.2 µM in [3]; 181 µM in [5]; 501 µM in [6]; 21.7 µM in assay [7]; 80.9 µM in [8]. Further, the “Kcat, % of the WT” value in assay [5] is given as about 15%. Besides, in [6], the “increase in the Km” value is 15 fold. The “increase in the affinity of the mutant enzyme” value in assay [7] was 62.17%. For the same molecule, the ΔH in assay [9] was −3719((±201.5) calM^−1; in assay [10], -3576 calM^−1 and −3576(±115.7) calM^−1; in assay [11] (pH 7.8) it was −7723 calM^−1; in [12], −4355(±138.7) calM^−1; in assay [13] it was −1559(±72.9) calM^−1. Moreover, the ΔS in assay [9] is listed as 6.32(±0.34) calM^−1K^−1; in assay [10], 5.73(±0.37) calM^−1K^−1; in assay [11] (pH 7.8), −6.5((±0.49) calM^−1K^−1; in assay [12], 4.94(±0.42) calM^−1K^−1; in assay [13] it was −35.1(±0.98) calM^−1K^−1. Further, the Ka in assay [10] is listed as 1.32(±1.45E3) M^−1*10^−4; in assay [11] (pH 7.8), 2.17(±1.23E3) M^−1*10^−4; in assay [12] it was 2.12 (±2.61E3) M^−1*10^−4. The “binding of the leading substrate (in words)” value in assay [11] is recorded as “reasonably well”.

Turning to `Nc1ncnc2c1ncn2[C@@H]1O[C@H](COP(=O)(O)OP(=O)(O)OP(=O)(O)O)[C@@H](O)[C@H]1O` [ATP], in [2], the Kcat is 2.34 and 2.34 min^−1; the Km was found to be 86.7 µM; the “increase in the Km” value was 50%; the “reduction in the Kcat” value was 19%. Moreover, in [3], the Kcat was 0.04272 s⁻¹ and the Km worked out at 59.8 µM. In [4], the Kcat entry is reported as “nr” and the Michaelis constant (Km) result is listed as “nr”. Besides, in assay [6], the Kcat was determined as 0.014 s⁻¹ and the “Kcat, % of the WT” value was “about 28%”. Moreover, in assay [7], the Kcat worked out at 0.0666 s⁻¹, the Km stood at 34.5 µM and the “increase in the affinity of the mutant enzyme” value worked out at 60.58%. In assay [8], the Kcat was determined as 0.0192 s⁻¹ and the Km is 63.9 µM. In addition, the “binding to ATP (in words)” value in [11] was “poor binding; also recorded: very poor binding”.

For `Nc1ncnc2c1ncn2[C@@H]1O[C@H](CO[P@](=O)(O)O[P@](=O)(O)O[P@@](=O)(O)S)[C@@H](O)[C@H]1O` [NHATP, ATP-γS], in assay [10], the ΔH was −1826 calM^−1 and −1826(±195.7) calM^−1; the ΔS is 13.8 calM^−1K^−1 and 13.8(±0.59) calM^−1K^−1. Further, the “N (binding)” value in [11] (pH 7.8) is “No binding”.

The values above are taken from publication PMC3019153 (PLoS ONE, 2011).
